One experiment has as its target T1, LXRβ full length (FL) (Homo sapiens, UniProt P55055, DUP175-175).
T1 construct: the full length (FL) proteins of LXRα (amino acids 1-447); NP005684; NP009052; expressed in transfected cells; host or cells: HEK293
T1 sequence (P55055 with tags, fused parts or gaps DUP175-175): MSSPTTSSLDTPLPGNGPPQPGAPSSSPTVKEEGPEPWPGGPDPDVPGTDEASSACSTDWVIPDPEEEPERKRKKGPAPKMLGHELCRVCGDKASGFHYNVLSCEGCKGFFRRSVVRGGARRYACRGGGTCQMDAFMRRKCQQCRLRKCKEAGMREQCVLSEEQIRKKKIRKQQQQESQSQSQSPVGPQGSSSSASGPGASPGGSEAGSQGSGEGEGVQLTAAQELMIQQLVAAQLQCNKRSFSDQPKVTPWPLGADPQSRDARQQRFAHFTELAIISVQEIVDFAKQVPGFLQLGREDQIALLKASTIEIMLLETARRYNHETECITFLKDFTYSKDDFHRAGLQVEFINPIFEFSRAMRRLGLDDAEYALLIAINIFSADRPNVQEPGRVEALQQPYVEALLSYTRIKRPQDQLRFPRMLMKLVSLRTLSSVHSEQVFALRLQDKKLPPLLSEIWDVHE
Briefly: LXR Gal4 reporter transient transfection assay (M2H), Gal4β FL. In kind it is cell-based. The note with it: HEK293 cells; read-out: M2H Gal4β FL activity range (EC50). The method, then:
(§1) The tested compounds were usually dissolved, tested and stored as 20 mM stock solutions in DMSO. Since sulfonyl acetic acid derivatives tend to decarboxylate under these conditions, these stock solutions were prepared, tested and stored as 20 mM DMSO stock solutions containing 100 mM trifluoroacetic acid (5 equivalents). Sulfonyl acetic acid derivatives are shelf stable as solid at rt for long time as reported by Griesbrecht et al. (Synlett 2010:374) or Faucher et al. (J. Med. Chem. 2004; 47:18).
(§2) LXR Gal4 Reporter Transient Transfection Assays
(§3) LXRα and LXRβ activity status was determined via detection of interaction with coactivator and corepressor proteins in mammalian two-hybrid experiments (M2H). For this, via transient transfection the full length (FL) proteins of LXRα (amino acids 1-447; NP005684; SEQ ID NO:7) or LXRβ-(amino acids 1-461; NP009052; SEQ ID NO:8) or the ligand-binding domains (LBD) of LXRα (amino acids 155-447 SEQ ID NO:3) or LXRβ (amino acids 156-461; SEQ ID NO:4) were expressed from pCMV-AD (Stratagene) as fusions to the transcriptional activation domain of NFkB. As cofactors, domains of either the steroid receptor coactivator 1 (SRC1; amino acids 552-887; SEQ ID NO:5) or of the corepressor NCoR (amino acids 1903-2312 SEQ ID NO:6) were expressed as fusions to the DNA binding domain of the yeast transcription factor GAL4 (from pCMV-BD; Stratagene). Interaction was monitored via activation of a coexpressed Firefly Luciferase Reporter gene under control of a promoter containing repetitive GAL4 response elements (vector pFRLuc; Stratagene). Transfection efficiency was controlled via cotransfection of constitutively active pRL-CMV Renilla reniformis luciferase reporter (Promega). HEK293 cells were grown in minimum essential medium (MEM) with 2 mM L-glutamine and Earle's balanced salt solution supplemented with 8.3% fetal bovine serum, 0.1 mM non-essential amino acids, 1 mM sodium pyruvate, at 37° C. in 5% CO2. 3.5×10^4 cells/well were plated in 96-well cell culture plates in growth medium supplemented with 8.3% fetal bovine serum for 16-20 h to ˜90% confluency. For transfection, medium was taken off and LXR and cofactor expressing plasmids as well as the reporter plasmids are added in 30 μL OPTIMEM/well including polyethylene-imine (PEI) as vehicle. Typical amounts of plasmids transfected/well: pCMV-AD-LXR (5 ng), pCMV-BD-cofactor (5 ng), pFR-Luc (100 ng), pRL-CMV (0.5 ng). Compound stocks were prepared in DMSO, prediluted in MEM to a total volume of 120 μL, and added 4 h after addition of the transfection mixture (final vehicle concentration not exceeding 0.2%). Cells were incubated for additional 16 h, lysed for 10 min in 1× Passive Lysis Buffer (Promega) and Firefly and Renilla luciferase activities were measured sequentially in the same cell extract using buffers containing D-luciferine and coelenterazine, respectively. Measurements of luminescence were done in a BMG-Iuminometer.

Experiment [1] addresses T2, GST-LXRβ ligand-binding domain (Homo sapiens, UniProt P55055, DUP175-175).
T2 construct: amino acids 156-461; NP009052; made in house; host or cells: E. coli
T2 sequence (P55055 with tags, fused parts or gaps DUP175-175): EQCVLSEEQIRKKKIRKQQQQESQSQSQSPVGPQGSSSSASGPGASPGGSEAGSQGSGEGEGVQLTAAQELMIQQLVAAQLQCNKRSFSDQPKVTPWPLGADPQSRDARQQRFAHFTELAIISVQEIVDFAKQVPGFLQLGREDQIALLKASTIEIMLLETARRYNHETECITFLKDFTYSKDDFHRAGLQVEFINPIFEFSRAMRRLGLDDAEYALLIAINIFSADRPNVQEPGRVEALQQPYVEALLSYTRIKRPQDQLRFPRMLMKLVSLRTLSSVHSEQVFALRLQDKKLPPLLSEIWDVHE
Briefly: TR-FRETβ activity assay (LXRβ-LBD / NCoA3 coactivator peptide, prestimulated with 24(S)-25-epoxycholesterol). The conditions noted are these: for pEC50: 1 μM 24(S)-25-epoxycholesterol as prestimulating agonist, read-out: FRETβ activity range (EC50); for behavior in FRET assay: agonist or inverse agonist. The arrangement: key to behavior in FRET assay: ag=agonist; ia=inverse agonist. In kind it is biochemical. The method, then: The tested compounds were usually dissolved, tested and stored as 20 mM stock solutions in DMSO. […] Sulfonyl acetic acid derivatives are shelf stable as solid at rt for long time as reported by Griesbrecht et al. (Synlett 2010:374) or Faucher et al. (J. Med. Chem. 2004; 47:18). TR-FRETβ Activity Assay Recombinant GST-LXRβ ligand-binding domain (LBD; amino acids 156-461; NP009052; SEQ ID NO:2) was expressed in E. coli and purified via gluthatione-sepharose affinity chromatography. N-terminally biotinylated NCoA3 coactivator peptide (SEQ ID NO:1) was chemically synthesized (Eurogentec). […] Finally, a detection mix was added containing anti GST-Tb cryptate (CisBio; 610SAXLB) and Streptavidin-XL665 (CisBio; 610SAXLB) as fluorescent donor and acceptor, respectively, as well as the coactivator peptide and LXRβ-LBD protein (SEQ ID NO:2). The reaction was mixed thoroughly, equilibrated for 1 h at 4° C. and vicinity of LXRβ and coactivator peptide was detected by measurement of fluorescence in a VictorX4 multiplate reader (PerkinElmer Life Science) using 340 nm as excitation and 615 and 665 nm as emission wavelengths. Assays were performed in triplicates. Final Assay Concentrations of Components: 240 mM KCl, 1 μg/μL BSA, 0.002% Triton-X-100, […] anti GST-Tb cryptate, 2.5 ng/μL Streptavidin-XL665, coactivator peptide (400 nM), LXRβ protein ([…], i.e. 76 nM)

For a further experiment, the target named is T3, LXRα full length (FL) (Homo sapiens, UniProt Q13133).
T3 construct: the full length (FL) proteins of LXRα (amino acids 1-447); NP005684; expressed in transfected cells; host or cells: HEK293
T3 sequence (Q13133 1-447): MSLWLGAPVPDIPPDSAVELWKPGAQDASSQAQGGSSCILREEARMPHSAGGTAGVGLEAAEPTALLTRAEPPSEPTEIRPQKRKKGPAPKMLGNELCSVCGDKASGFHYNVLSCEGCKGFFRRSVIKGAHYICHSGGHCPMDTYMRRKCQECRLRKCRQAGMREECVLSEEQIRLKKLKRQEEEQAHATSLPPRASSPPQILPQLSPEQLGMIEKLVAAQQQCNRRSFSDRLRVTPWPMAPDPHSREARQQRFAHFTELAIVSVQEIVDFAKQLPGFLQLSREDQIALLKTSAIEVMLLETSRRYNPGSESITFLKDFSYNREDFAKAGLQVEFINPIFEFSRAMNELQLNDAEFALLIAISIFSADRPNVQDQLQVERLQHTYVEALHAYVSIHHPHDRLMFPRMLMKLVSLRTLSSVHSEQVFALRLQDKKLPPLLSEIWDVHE
Description: LXR Gal4 reporter transient transfection assay (M2H), Gal4α FL. In kind it is cell-based. The note with it: HEK293 cells; for pEC50: read-out: M2H Gal4α FL activity range (EC50). The method, then:
as §1, §2, §3

pEC50: −log10 of the molar value. A value given as a limit tells only on which side of the number the result lay.

In the case of `Cc1ccc(S(=O)(=O)N(Cc2ccc(-c3cccc(S(=O)(=O)CC(=O)O)c3)cc2)Cc2ccc(C(F)(F)F)o2)c(C)c1` [10/12], the pEC50 was 6.00 to 7.00 on LXRβ full length (FL), 5.00 to 6.00 in experiment [1] and 5.00 to 6.00 at LXRα full length (FL). In experiment [1], the “behavior in FRET assay” value was “ia”.

For `Cc1ccc2ncccc2c1S(=O)(=O)N(Cc1ccc(-c2cccc(C(C)(C)C(=O)O)c2)cc1)Cc1ccc(C(F)(F)F)o1` [10/15], the pEC50 (on LXRβ full length (FL); in experiment [1]; at LXRα full length (FL)) was greater than 7.00 each time. Also, the “behavior in FRET assay” value in experiment [1] is “ia”.

On to `Cc1ccc2ccccc2c1S(=O)(=O)N(Cc1ccc(-c2cccc(S(=O)(=O)CC(=O)O)c2)cc1)Cc1ccc(C#N)o1` [Example 5/7], for which the pEC50 at LXRβ full length (FL) is 6.00 to 7.00; in experiment [1] it was 5.00 to 6.00; on LXRα full length (FL), 6.00 to 7.00. Besides, in experiment [1], the “behavior in FRET assay” value is “ia”.

With `O=C(O)CS(=O)(=O)c1cccc(-c2ccc(CN(Cc3ccc(C(F)(F)F)o3)S(=O)(=O)c3cccc4ccccc34)cc2)c1` [10/9], the pEC50 at LXRβ full length (FL) was 6.00 to 7.00; in experiment [1] it was 5.00 to 6.00; at LXRα full length (FL), 5.00 to 6.00. In addition, the “behavior in FRET assay” value in experiment [1] is on record as “ia”.

Regarding `Cc1cc(C)c(S(=O)(=O)N(Cc2ccc(-c3cccc(S(=O)(=O)CC(=O)O)c3)cc2)Cc2ccc(F)c(C)c2)c(C)c1` [11/5], the figures for the pEC50 (at LXRβ full length (FL); in experiment [1]; on LXRα full length (FL)) were 6.00 to 7.00, less than 5.00 and 5.00 to 6.00, respectively. Moreover, in experiment [1], the “behavior in FRET assay” value is on record as “ia”.

On to `Cc1cc(F)cc(C)c1S(=O)(=O)N(Cc1ccc(-c2cccc(S(=O)(=O)CC(=O)O)c2)cc1)Cc1ccc(C(F)(F)F)o1` [10/2], for which the figures for the pEC50 (on LXRβ full length (FL); in experiment [1]; on LXRα full length (FL)) were 6.00 to 7.00, 5.00 to 6.00 and 5.00 to 6.00, respectively. In addition, the “behavior in FRET assay” value in experiment [1] was “ia”.

With `Cc1sc2ccccc2c1S(=O)(=O)N(Cc1ccc(-c2cccc(C(C)(C)C(=O)O)c2)cc1)Cc1ccc(C(F)(F)F)o1` [10/18], the pEC50 (on LXRβ full length (FL); in experiment [1]; at LXRα full length (FL)) was greater than 7.00 each time. Further, in experiment [1], the “behavior in FRET assay” value is “ia”.

With `Cc1cc(C)c(S(=O)(=O)N(Cc2ccc(-c3cccc(C(C)(C)C(=O)O)c3)cc2)c2ccc(C(F)(F)F)o2)c(C)c1` [10/7], the values for the pEC50 (at LXRβ full length (FL); in experiment [1]; at LXRα full length (FL)) were greater than 7.00, 6.00 to 7.00 and 6.00 to 7.00, respectively. Also, the “behavior in FRET assay” value in experiment [1] is reported as “ag”.

Regarding `Cc1cc(C)c(S(=O)(=O)N(Cc2ccc(-c3cccc(S(=O)(=O)CC(=O)O)c3)cc2)Cc2cncc(C(F)(F)F)c2)c(C)c1` [11/9], the pEC50 (at LXRβ full length (FL); in experiment [1]; on LXRα full length (FL)) was 5.00 to 6.00 each time. Besides, the “behavior in FRET assay” value in experiment [1] is “ia”.

For the molecule `COc1cccc(CN(Cc2ccc(-c3cccc(S(=O)(=O)CC(=O)O)c3)cc2)S(=O)(=O)c2c(C)cc(C)cc2C)c1` [11/3], the values for the pEC50 (at LXRβ full length (FL); in experiment [1]; at LXRα full length (FL)) were 5.00 to 6.00, less than 5.00 and 5.00 to 6.00, respectively. Besides, the “behavior in FRET assay” value in experiment [1] was “ia”.

`Cc1ccc2ccccc2c1S(=O)(=O)N(Cc1ccc(-c2cccc(C(C)(C)C(=O)O)c2)cc1)Cc1cc2ccccc2o1` [10/17]: the pEC50 is greater than 7.00 at LXRβ full length (FL), 5.00 to 6.00 in experiment [1] and 6.00 to 7.00 at LXRα full length (FL). Further, the “behavior in FRET assay” value in experiment [1] is given as “ia”.

Regarding `Cc1ccc2ccccc2c1S(=O)(=O)N(Cc1ccc(-c2cccc(C(C)(C)C(=O)O)c2)cc1)C1CCc2ccc(C(F)(F)F)cc21` (stereo not shown) [17/2], the pEC50 is greater than 7.00 on LXRβ full length (FL), 6.00 to 7.00 in experiment [1] and greater than 7.00 on LXRα full length (FL). Besides, the “behavior in FRET assay” value in experiment [1] was “ia”.

As for `Cc1cc(F)c(S(=O)(=O)N(Cc2ccc(-c3cccc(S(=O)(=O)CC(=O)O)c3)cc2)Cc2ccc(C(F)(F)F)o2)c(F)c1` [Example 14/1], the pEC50 at LXRβ full length (FL) was 5.00 to 6.00. Besides, in experiment [1], the pEC50 was 5.00 to 6.00 and the “behavior in FRET assay” value is “ag”. The “M2H Gal4α FL activity range (EC50)” value at LXRα full length (FL) was “inactive”.

The values above are taken from patent publication US20200115357A1, “LIVER X RECEPTORS (LXR) MODULATORS” (Phenex-FXR GmbH, priority 2017, published 2020).
